Values joined by “and” are separate entries in the source; they are usually repeats but may differ in a detail not shown here. Identical values can stand only once. Where a SMILES comes first, the peptide text is derived from it. [ ]: non-standard residue; d: D form. Hyp = O=C(O)[C@@H]1C[C@@H](O)CN1
Legend:
IL-2 = assay: Example 8 main study Luminex, LPS hPBMCs: IL-2; assay type: cell-based, human; conditions: for IL-2 MFI, individual wells / IL-2 MFI, Mean / IL-2 Concentration, Mean / IL-2 Concentration, individual wells: no LPS; for IL-2 MFI, Mean: 0.5% DMSO Mean 30.7; for IL-2 Concentration, Mean: 0.5% DMSO Mean 61.8
Description: (§1) Human PBMCs were pretreated with YY-101, YDE-011, YDE-043 or reference compound; Xiidra® at various concentration (ranging from […] to 500 nM) for 2 h before stimulation. An equal volume of 0.5% DMSO was used as a vehicle control. Then, the cells were treated with LPS at 5 ug/ml, which was selected based on the pilot study. The supernatants from treated cells were harvested at 24 h and placed in a 96 well for Luminex cytokine & chemokine profiling using a Luminex 200 multiplex assay (Luminex; R&D system, USA).
(§2) The main study arm with triplicate wells per group in a 24-well plate: • 1. Blank • 2. PBMC: 0.5% DMSO • 3. PBMC+LPS (5 ug/ml) • 4. PBMC+YY-101 500 nM • 5. PBMC+YY-101 50 nM • 6. PBMC+YY-101 5 nM • 7. PBMC+YY-101 0.5 nM • 8. PBMC+LPS (5 ug/ml)+Xiidra® 500 nM • 9. PBMC+LPS (5 ug/ml)+Xiidra® 50 nM • 10. PBMC+LPS (5 ug/ml)+Xiidra® 5 nM • 11. PBMC+LPS (5 ug/ml)+Xiidra® 0.5 nM • 12. PBMC+LPS (5 ug/ml)+Xiidra® 0.05 nM • 13. PBMC+LPS (5 ug/ml)+Xiidra® 0.005 nM • 14. PBMC+LPS (5 ug/ml)+YY-101 500 nM • 15. PBMC+LPS (5 ug/ml)+YY-101 50 nM • 16. PBMC+LPS (5 ug/ml)+YY-101 5 nM • 17. PBMC+LPS (5 ug/ml)+YY-101 0.5 nM • 18. PBMC+LPS (5 ug/ml)+YY-101 0.05 nM • 19. PBMC+LPS (5 ug/ml)+YY-101 0.005 nM • 20. PBMC+LPS (5 ug/ml)+YDE-011 500 nM • 21. PBMC+LPS (5 ug/ml)+YDE-011 50 nM • 22. PBMC+LPS (5 ug/ml)+YDE-011 5 nM • 23. PBMC+LPS (5 ug/ml)+YDE-011 0.5 nM • 24. PBMC+LPS (5 ug/ml)+YDE-011 0.05 nM • 25. PBMC+LPS (5 ug/ml)+YDE-011 0.005 nM • 26. PBMC+LPS (5 ug/ml)+YDE-043 500 nM • 27. PBMC+LPS (5 ug/ml)+YDE-043 50 nM • 28. PBMC+LPS (5 ug/ml)+YDE-043 5 nM • 29. PBMC+LPS (5 ug/ml)+YDE-043 0.5 nM • 30. PBMC+LPS (5 ug/ml)+YDE-043 0.05 nM • 31. PBMC+LPS (5 ug/ml)+YDE-043 0.005 nM
(§3) Multiplex assay was used to measure 30 cytokines and chemokines. The 1:200 diluted cell supernatant and serial dilution of the standard were dispensed into a 96 well plate at 50 ul/well. Then, the pre-mixed cocktail of antibody-coated magnetic beads was dispensed at 50 ul/well and incubated at room temperature for 2 h in a horizontal orbital microplate shaker at 800±500 rpm. The beads were washed using a magnetic device to prevent loss. The biotin-antibody was dispensed in 50 ul of each well and incubated at room temperature for 1 h in a shaker at 800±500 rpm. After washing, streptavidin-PE was added at 50 ul/well and incubated at room temperature for 30 min in a shaker under the same conditions. Finally, after washing, wash buffer (100 ul/well) was added to the plate and incubated in a shaker for 2 min. The Luminex™ 200 setting were set according to the manufacturer's protocol. The data was calculated with a standard five-parameter logistic nonlinear regression analysis of the data (xPonent software 4.2, USA). Results were presented as concentration (ng/ml or pg/ml).

IL-6 = assay: Example 8 main study Luminex, LPS hPBMCs: IL-6; assay type: cell-based, human
Description: as §1, §2, §3

[1] = at as low as 5 μM, LPS 5 ug/mL 24 hrs

With `CC(C)C[C@H](NC(=O)CNC(=O)[C@H](CC(=O)O)NC(=O)[C@H](CCC(N)=O)NC(=O)CNC(=O)[C@@H]1C[C@@H](O)CN1)C(=O)N[C@@H](C)C(=O)NCC(=O)N1CCC[C@H]1C(=O)N[C@@H](CCCCN)C(=O)O` [YY-101] (H-[Hyp]GQDGLAGPK-OH; N-terminus and C-terminus assumed) the “IL-2 MFI, individual wells” value (IL-2; PBMC + compound 0.05 uM) was 38.0 and 34.0, the “IL-2 MFI, Mean” value (IL-2; PBMC + compound 0.05 uM) was 36.0 and the “IL-2 Concentration, Mean” value (IL-2; PBMC + compound 0.05 uM) was 498.2 pg/mL. The “IL-2 Concentration, individual wells” value (IL-2; PBMC + compound 50 nM) was 48.8 pg/mL and 173.5 pg/mL, the “IL-2 MFI, individual wells” value (IL-2; PBMC + compound 50 nM) was 30.5 and 32.0 and the “IL-2 MFI, Mean” value (IL-2; PBMC + compound 50 nM) was 31.3. The “IL-2 Concentration, Mean” value (IL-2; PBMC + compound 50 nM) was 111.2 pg/mL, the “IL-2 Concentration, individual wells” value (IL-2; PBMC + compound 500 nM) was 132.3 pg/mL and 255.5 pg/mL and the “IL-2 MFI, individual wells” value (IL-2; PBMC + compound 500 nM) was 31.5 and 33.0. The “IL-2 MFI, Mean” value (IL-2; PBMC + compound 500 nM) was 32.3, the “IL-2 Concentration, Mean” value (IL-2; PBMC + compound 500 nM) was 193.9 pg/mL and the “LPS-induced IL-2 (in words)” value (IL-2; [1]) was “significantly reduced”. For the same compound, the “IL-6 Concentration, Mean” value (IL-6; PBMC + LPS(5 ug/ml) + test article 0.005 nM) was 18061.6 pg/mL, the “IL-6 Concentration” value (IL-6; PBMC + LPS(5 ug/ml) + test article 0.005 nM, single replicates (1st, 2nd, 3rd)) was 18760.0 pg/mL and 17676.7 pg/mL and 17748.1 pg/mL and the “IL-6 Concentration, Mean” value (IL-6; PBMC + LPS(5 ug/ml) + test article 0.05 nM) was 18375.1 pg/mL. The “IL-6 Concentration” value (IL-6; PBMC + LPS(5 ug/ml) + test article 0.05 nM, single replicates (1st, 2nd, 3rd)) was 17605.3 pg/mL and 19105.4 pg/mL and 18414.7 pg/mL, the “IL-6 Concentration, Mean” value (IL-6; PBMC + LPS(5 ug/ml) + test article 0.5 nM) was 18018.0 pg/mL and the “IL-6 Concentration” value (IL-6; PBMC + LPS(5 ug/ml) + test article 0.5 nM, single replicates (1st, 2nd, 3rd)) was 18069.4 pg/mL and 17248.3 pg/mL and 18736.2 pg/mL. The “IL-6 Concentration, Mean” value (IL-6; PBMC + LPS(5 ug/ml) + test article 5 nM) was 17232.8 pg/mL, the “IL-6 Concentration” value (IL-6; PBMC + LPS(5 ug/ml) + test article 5 nM, single replicates (1st, 2nd, 3rd)) was 16606.0 pg/mL and 16439.5 pg/mL and 18652.8 pg/mL and the “IL-6 Concentration, Mean” value (IL-6; PBMC + LPS(5 ug/ml) + test article 50 nM) was 16962.9 pg/mL. The “IL-6 Concentration” value (IL-6; PBMC + LPS(5 ug/ml) + test article 50 nM, single replicates (1st, 2nd, 3rd)) was 16320.6 pg/mL and 16689.2 pg/mL and 17879.0 pg/mL, the “IL-6 Concentration, Mean” value (IL-6; PBMC + LPS(5 ug/ml) + test article 500 nM) was 17165.1 pg/mL and the “IL-6 Concentration” value (IL-6; PBMC + LPS(5 ug/ml) + test article 500 nM, single replicates (1st, 2nd, 3rd)) was 17129.3 pg/mL and 17748.1 pg/mL and 16617.9 pg/mL. The “IL-6 Concentration, Mean” value (IL-6; PBMC + test article 0.5 nM, no LPS) was 16.2 pg/mL, the “IL-6 Concentration” value (IL-6; PBMC + test article 0.5 nM, no LPS, single replicates (1st, 2nd)) was 5.0 pg/mL and 27.3 pg/mL and the “IL-6 Concentration, Mean” value (IL-6; PBMC + test article 5 nM, no LPS) was 5.0 pg/mL. For the same compound, the “IL-6 Concentration” value (IL-6; PBMC + test article 5 nM, no LPS, single replicates (1st, 2nd)) was 5.0 pg/mL, the “IL-6 Concentration, Mean” value (IL-6; PBMC + test article 0.05 uM, no LPS) was 140.1 pg/mL and the “IL-6 Concentration” value (IL-6; PBMC + test article 0.05 uM, no LPS, single replicates (1st, 2nd)) was 140.1 pg/mL and <2.65 pg/mL. The “IL-6 Concentration, Mean” value (IL-6; PBMC + test article 50 nM, no LPS) was 5.0 pg/mL, the “IL-6 Concentration” value (IL-6; PBMC + test article 50 nM, no LPS, single replicates (1st, 2nd)) was 5.0 pg/mL and <2.65 pg/mL and the “IL-6 Concentration” value (IL-6; PBMC + test article 500 nM, no LPS, single replicates (1st, 2nd)) was less than 2.65 pg/mL. The “LPS-induced IL-6 (in words)” value (IL-6; [1]) was “significantly reduced”.

— patent US20230146455A1, “TREATMENT OF INFLAMMATORY DISEASES WITH PEPTIDES AND PHARMACEUTICAL COMPOSITIONS” (Yuyu Pharma, Inc., priority 2020, published 2023)
